Laboratory results reported in paper PMC3705398 (Marine Drugs, 2013).
“Also recorded” adds a separate entry of the source. Like-named read-outs stand apart in the source and are kept apart here. Where a SMILES comes first, the peptide text is derived from it.

Key:
adult male ICR mice [1] = conditions: mouse, in vivo
adult male ICR mice [2] = conditions: mouse, in vivo; remark: listed apart in the source
[3] = biological target: T1, CaV2.2 (N-type) calcium channels in rat superior cervical ganglion (SCG) neurons (Rattus norvegicus, UniProt Q02294); test: cell-based; format: cell-based, rat (Wistar)
T1 construct: SCG neurons are the most used native preparation to assess CaV2.2 (N-type) channel function; endogenous in cells
T1 sequence (Q02294 whole entry): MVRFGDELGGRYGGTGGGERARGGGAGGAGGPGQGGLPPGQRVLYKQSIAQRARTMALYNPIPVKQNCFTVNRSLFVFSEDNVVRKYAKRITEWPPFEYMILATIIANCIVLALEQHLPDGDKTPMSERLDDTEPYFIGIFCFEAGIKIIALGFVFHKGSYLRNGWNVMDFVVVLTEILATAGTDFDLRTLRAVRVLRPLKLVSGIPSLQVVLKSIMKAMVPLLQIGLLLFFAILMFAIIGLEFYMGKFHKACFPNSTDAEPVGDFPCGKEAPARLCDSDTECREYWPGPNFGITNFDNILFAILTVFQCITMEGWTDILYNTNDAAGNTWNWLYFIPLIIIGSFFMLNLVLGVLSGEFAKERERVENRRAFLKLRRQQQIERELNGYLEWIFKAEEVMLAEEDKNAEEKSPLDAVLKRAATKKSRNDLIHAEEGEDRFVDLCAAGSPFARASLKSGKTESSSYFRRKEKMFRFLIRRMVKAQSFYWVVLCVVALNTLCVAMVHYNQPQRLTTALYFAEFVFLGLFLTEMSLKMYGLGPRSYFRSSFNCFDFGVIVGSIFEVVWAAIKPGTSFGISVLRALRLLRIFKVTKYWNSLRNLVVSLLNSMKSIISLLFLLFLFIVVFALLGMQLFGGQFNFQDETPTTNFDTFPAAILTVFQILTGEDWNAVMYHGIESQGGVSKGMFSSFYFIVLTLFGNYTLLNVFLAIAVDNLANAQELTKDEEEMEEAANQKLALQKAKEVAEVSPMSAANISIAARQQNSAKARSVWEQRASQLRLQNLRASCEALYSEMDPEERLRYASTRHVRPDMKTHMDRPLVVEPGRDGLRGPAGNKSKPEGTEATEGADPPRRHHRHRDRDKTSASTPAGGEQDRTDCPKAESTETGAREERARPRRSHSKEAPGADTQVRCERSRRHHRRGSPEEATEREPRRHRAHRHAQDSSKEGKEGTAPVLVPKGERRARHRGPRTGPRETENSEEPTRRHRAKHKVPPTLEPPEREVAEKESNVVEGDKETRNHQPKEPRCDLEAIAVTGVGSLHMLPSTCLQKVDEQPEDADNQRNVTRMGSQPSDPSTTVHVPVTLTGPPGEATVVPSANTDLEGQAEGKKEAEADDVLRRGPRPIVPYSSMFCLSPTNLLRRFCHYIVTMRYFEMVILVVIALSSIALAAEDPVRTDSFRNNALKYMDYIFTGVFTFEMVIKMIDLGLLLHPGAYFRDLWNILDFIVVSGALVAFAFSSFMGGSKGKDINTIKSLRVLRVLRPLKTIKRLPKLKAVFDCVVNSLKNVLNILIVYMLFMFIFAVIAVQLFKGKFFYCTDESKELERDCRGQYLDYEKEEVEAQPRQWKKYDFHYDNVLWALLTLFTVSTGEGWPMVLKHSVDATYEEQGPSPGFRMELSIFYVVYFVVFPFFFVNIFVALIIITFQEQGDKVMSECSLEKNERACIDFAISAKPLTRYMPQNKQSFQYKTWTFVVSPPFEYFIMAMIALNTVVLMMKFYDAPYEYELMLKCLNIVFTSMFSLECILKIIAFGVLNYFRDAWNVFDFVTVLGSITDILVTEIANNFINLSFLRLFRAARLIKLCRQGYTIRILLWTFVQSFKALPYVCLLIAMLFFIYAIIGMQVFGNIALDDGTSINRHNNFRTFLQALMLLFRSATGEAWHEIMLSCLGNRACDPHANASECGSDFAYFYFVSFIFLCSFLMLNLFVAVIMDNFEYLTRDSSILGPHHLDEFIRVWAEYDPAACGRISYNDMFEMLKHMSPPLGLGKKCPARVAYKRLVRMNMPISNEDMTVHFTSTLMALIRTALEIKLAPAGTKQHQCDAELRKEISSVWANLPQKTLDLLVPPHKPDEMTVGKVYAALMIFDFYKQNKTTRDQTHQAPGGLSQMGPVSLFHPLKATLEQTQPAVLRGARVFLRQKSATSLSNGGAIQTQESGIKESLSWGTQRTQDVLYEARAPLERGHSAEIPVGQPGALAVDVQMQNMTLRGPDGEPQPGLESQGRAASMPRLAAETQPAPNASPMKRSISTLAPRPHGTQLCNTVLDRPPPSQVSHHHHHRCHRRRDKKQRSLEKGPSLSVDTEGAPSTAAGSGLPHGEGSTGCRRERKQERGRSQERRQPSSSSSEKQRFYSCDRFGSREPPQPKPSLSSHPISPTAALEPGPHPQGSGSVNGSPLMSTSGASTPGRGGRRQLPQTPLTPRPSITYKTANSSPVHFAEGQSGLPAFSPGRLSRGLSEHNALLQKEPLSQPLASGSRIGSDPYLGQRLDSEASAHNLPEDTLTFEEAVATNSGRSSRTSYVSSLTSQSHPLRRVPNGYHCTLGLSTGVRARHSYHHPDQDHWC
T1 sequence (P54290 25-1091 partner): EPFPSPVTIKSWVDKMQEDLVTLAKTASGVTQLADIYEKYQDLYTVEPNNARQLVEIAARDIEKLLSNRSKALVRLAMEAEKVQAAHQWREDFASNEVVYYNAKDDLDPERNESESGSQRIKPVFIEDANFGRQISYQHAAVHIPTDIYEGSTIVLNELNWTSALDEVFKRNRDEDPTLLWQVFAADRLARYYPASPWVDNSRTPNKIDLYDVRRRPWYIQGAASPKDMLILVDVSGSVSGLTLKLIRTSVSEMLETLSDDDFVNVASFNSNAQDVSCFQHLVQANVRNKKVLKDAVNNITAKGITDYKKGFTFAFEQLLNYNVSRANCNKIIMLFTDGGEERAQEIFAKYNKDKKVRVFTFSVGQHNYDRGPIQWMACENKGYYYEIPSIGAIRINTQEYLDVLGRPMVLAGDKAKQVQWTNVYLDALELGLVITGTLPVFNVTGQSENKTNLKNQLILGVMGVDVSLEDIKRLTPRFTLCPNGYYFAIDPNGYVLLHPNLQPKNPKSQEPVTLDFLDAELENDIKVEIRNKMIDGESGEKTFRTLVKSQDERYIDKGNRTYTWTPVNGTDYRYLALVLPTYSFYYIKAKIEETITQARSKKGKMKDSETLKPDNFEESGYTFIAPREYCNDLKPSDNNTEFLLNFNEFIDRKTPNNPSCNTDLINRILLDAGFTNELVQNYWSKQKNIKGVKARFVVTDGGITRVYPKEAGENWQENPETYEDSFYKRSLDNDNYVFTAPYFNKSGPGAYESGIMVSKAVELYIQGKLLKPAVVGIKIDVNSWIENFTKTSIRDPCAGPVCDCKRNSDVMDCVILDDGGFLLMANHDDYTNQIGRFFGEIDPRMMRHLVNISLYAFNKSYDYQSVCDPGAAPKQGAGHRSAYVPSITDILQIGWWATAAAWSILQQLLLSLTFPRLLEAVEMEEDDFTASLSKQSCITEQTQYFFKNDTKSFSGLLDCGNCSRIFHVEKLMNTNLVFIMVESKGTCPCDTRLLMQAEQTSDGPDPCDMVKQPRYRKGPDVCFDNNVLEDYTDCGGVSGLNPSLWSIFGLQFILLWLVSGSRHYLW
T1 sequence (P54287 whole entry partner): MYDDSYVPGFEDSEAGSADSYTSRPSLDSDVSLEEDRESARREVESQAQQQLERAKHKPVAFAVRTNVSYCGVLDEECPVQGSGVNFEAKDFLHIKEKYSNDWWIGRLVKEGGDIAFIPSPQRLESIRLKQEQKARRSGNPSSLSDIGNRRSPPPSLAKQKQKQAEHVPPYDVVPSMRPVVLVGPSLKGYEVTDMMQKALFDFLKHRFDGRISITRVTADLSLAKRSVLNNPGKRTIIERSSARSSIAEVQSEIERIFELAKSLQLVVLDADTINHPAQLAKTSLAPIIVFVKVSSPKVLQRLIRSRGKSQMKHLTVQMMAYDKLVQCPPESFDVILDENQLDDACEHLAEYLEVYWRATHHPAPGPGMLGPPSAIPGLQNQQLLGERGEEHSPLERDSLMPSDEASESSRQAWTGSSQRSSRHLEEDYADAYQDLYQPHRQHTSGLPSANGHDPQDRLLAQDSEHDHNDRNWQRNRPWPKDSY

[4] = read-out: inhibition of calcium current

CSCC[C@H](NC(=O)[C@H](CC(C)C)NC(=O)[C@H](CCCNC(=N)N)NC(=O)[C@H](CO)NC(=O)CNC(=O)[C@H](CCCCN)NC(=O)[C@H](CO)NC(=O)[C@H](CC(C)C)NC(=O)[C@H](CS)NC(=O)[C@H](Cc1ccccc1)NC(=O)[C@H](CCC(=O)O)NC(=O)[C@H](CCCCN)NC(=O)[C@@H](NC(=O)[C@H](CO)NC(=O)[C@H](CS)NC(=O)[C@H](CO)NC(=O)[C@H](CO)NC(=O)[C@H](CS)NC(=O)[C@H](CO)NC(=O)[C@H](CCC(N)=O)NC(=O)CNC(=O)[C@H](CCCCN)NC(=O)[C@@H](N)CS)[C@@H](C)O)C(=O)N[C@@H](Cc1ccc(O)cc1)C(=O)N[C@@H](CC(=O)O)C(=O)N[C@@H](CS)C(=O)N[C@@H](CS)C(=O)N[C@H](C(=O)NCC(=O)N[C@@H](CO)C(=O)N[C@@H](CS)C(=O)N[C@@H](CS)C(=O)NCC(=O)N[C@H](C(=O)N[C@@H](CCCCN)C(=O)N[C@H](C(=O)N[C@@H](C)C(=O)NCC(=O)N[C@H](C(=O)N[C@H](C(=O)O)[C@@H](C)O)C(C)C)[C@@H](C)O)C(C)C)[C@@H](C)O [RsXXIVA] (H-CKGQSCSSCSTKEFCLSKGSRLMYDCCTGSCCGVKTAGVT-OH)
hind paw licking in formalin test (in words) compared with control group (adult male ICR mice [1]): significantly reduced the hind paw licking during both phase 1 (Figure 6A) and phase 2 (Figure 6B) | analgesic effect in hot-plate test (in words) compared with control (PBS) (adult male ICR mice [2]): analgesic effect in acute thermal pain at 30 and 45 min post-injection; also recorded: significantly better than the control group (p < 0.05) | CaV2.2 current before restoration (under toxin) [3]: −442.9 ± 213.8 pA | CaV2.2 current restored after toxin washout [3]: −798.2 ± 313.4 pA | Hill coefficient of dose-response for CaV2.2 current inhibition [3]: 0.94 | affinity for CaV2.2 (in words) [3]: low affinity for CaV2.2 | reversibility of CaV2.2 current inhibition after washing [3]: partially reversed after washing; also recorded: partially reversible; also recorded: the inhibition of the CaV2.2 channel current occurred reversibly | time to inhibit CaV2.2 current [3]: less than 4 s | inhibition at 0.03 µM [3, 4]: 1.6 ± 0.1% | inhibition at 0.3 µM [3, 4]: 12 ± 0.5% | inhibition at 3 µM [3, 4]: 58.1 ± 2.6% | inhibition at 24 µM [3, 4]: 97.9 ± 0.5% | inhibition at 3 µM ([3]; read-out: percentage of inhibition compared to the block with 100 μM Cd2+): 58.1%
